Laboratory results published in PMC3755010 (Bioorganic & medicinal chemistry letters, 2012).
One block for each molecule: values may come before it.

Columns and labels:
[1] = target: rat mGlu5 receptor (Rattus norvegicus, UniProt P31424); assay: Calcium mobilization assay in HEK293 cells expressing the rat mGlu5 receptor; type: cell-based; details: for EC50 (nM): calcium mobilization, HEK293 cells expressing rat mGlu5; for loss in functional activity versus 6: relative to 6 (VU0357121); for improvement in potency versus 8b: relative to 8b
Sequence of rat mGlu5 receptor (P31424 21-1203): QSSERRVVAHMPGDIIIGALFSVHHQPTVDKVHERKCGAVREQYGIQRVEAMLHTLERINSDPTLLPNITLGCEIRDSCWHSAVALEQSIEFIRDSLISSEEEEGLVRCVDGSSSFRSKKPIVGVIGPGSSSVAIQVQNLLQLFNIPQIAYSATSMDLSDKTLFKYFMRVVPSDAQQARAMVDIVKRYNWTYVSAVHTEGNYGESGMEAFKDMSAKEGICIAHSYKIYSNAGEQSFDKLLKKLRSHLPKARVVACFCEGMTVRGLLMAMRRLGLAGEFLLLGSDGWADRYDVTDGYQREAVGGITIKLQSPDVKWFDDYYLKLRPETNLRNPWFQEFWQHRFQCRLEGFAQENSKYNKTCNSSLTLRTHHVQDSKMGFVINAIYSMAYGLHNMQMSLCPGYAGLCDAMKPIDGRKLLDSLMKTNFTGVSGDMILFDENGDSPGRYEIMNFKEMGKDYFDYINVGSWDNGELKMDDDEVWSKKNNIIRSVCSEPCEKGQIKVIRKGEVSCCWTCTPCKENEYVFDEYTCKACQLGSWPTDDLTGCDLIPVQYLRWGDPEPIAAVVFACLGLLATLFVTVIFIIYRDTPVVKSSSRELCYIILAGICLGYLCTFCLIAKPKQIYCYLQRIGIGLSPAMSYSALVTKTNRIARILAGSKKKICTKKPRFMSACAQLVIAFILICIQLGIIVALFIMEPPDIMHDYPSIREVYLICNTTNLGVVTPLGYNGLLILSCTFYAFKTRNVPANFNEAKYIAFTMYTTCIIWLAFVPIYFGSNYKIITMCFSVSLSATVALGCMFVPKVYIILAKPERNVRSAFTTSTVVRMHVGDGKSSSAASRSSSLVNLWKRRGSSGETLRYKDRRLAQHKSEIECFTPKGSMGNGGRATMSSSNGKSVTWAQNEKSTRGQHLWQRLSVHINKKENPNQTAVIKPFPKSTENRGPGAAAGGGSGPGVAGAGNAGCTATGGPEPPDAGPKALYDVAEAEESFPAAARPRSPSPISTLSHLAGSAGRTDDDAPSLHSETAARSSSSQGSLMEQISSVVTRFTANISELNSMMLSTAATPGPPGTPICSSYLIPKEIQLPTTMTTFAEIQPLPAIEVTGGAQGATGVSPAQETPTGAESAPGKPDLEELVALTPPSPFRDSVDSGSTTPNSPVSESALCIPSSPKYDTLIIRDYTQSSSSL

[2] = target: T1, mGlu5 MPEP allosteric binding site (Rattus norvegicus, UniProt P31424); assay: [3H]methoxyPEPy binding
T1 sequence (P31424 21-1203): as above

[3] = target: human mGlu5 receptor (Homo sapiens, UniProt P41594); assay: Functional assay in lower expressing human mGlu5 receptor cell line; type: cell-based
Sequence of human mGlu5 receptor (P41594 21-1212): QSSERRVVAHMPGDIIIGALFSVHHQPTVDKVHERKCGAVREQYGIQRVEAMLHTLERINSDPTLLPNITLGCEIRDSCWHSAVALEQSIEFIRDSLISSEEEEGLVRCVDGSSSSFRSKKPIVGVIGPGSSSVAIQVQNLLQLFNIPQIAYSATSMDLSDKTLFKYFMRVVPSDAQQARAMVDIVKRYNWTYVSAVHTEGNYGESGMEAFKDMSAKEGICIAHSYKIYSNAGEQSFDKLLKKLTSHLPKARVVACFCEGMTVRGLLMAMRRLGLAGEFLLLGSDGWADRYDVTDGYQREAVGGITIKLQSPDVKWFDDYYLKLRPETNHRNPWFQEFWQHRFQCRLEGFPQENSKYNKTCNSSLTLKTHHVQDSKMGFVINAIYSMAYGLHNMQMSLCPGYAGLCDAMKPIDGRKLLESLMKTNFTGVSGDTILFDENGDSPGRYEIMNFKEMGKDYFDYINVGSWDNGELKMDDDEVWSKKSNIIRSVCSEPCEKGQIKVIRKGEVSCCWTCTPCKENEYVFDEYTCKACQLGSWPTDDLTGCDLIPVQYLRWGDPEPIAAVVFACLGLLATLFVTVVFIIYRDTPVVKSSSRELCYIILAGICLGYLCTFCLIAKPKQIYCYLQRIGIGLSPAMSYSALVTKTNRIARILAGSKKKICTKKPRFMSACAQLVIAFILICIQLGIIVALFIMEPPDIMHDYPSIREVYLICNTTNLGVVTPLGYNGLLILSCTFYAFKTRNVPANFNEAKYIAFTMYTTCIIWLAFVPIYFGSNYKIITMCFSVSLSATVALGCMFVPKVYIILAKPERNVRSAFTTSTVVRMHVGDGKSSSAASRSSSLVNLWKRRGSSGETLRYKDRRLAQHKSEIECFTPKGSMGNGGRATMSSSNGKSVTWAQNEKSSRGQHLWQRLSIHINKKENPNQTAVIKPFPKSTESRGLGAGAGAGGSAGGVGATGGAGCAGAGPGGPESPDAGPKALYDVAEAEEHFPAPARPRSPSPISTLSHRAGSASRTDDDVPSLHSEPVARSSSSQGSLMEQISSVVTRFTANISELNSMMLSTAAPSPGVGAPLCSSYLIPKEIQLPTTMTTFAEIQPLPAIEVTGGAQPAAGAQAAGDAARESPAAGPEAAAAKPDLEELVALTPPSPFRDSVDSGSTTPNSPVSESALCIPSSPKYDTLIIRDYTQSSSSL

[4] = system: mGlu5 MPEP site sensitive mutants (P654F, T780A, A809V); assay: Fold-shift of glutamate CRC at MPEP site sensitive point mutants; type: cell-based; details: 1 μM compound, compared to wild-type rat mGlu5
[5] = Non-crossover in vivo pharmacokinetic studies in rats; set-up: species or system rat
[6] = Reversal of amphetamine-induced hyperlocomotion in rats; type: in vivo, rat; details: rat, brain (unbound), po, 100 mg/kg
[7] = system: amphetamine-induced hyperlocomotion; assay: as above; type: in vivo, rat; details: rats, 100 mg/kg p.o., vehicle 20% β-CD
[8] = target: wild-type rat mGlu5 receptor (Rattus norvegicus, UniProt P31424); assay: Fold-shift of glutamate concentration-response curve at wild-type receptor; type: cell-based; details: 1 μM compound
Sequence of wild-type rat mGlu5 receptor (P31424 21-1203): as the sequence (P31424 21-1203) above

[9] = target: T1, mGlu5 MPEP allosteric binding site; details: cited from earlier work
[10] = In vitro oxidative metabolism; type: in vitro ADME, rat

SMILES: O=C(NC1CCCCC1)c1ccc(OCc2ccc(F)cc2)nc1 [8m]
loss in activity relative to 8k ([1]; relative to 8k): sevenfold

SMILES: C[C@@H](NC(=O)c1ccc(OCc2cccc(F)c2)nc1)C(C)(C)C [8v]
displacement of the MPEP-site radioligand [3H]-methoxyPEPy (extent) [2]: full displacement | agonism activity for compound alone [3]: no detected agonism activity | effect of MPEP-site point mutations on shift of the glutamate CRC [4]: reduced the ability | clearance ([5]; rat, plasma, iv, 1 mg/kg): 13.7 mL/min/kg | first-pass effect (Ehep) ([5]; rats, snapshot oral PK, portal vein vs plasma): 0.41 | increase in activity over cyclohexyl analog R-8t ([1]; high expressing rat receptor HEK cell line): twofold | concentration at 90 min [6]: ~74 nM | reversal of amphetamine-induced hyperlocomotion [7]: robust effects in reversal of hyperlocomotion | shift of the glutamate CRC [8]: fivefold

SMILES: CCCCOc1ccc(C(=O)Nc2ccc(F)cc2F)cc1 [compound 6]
displacement of the MPEP-site ligand [3H]methoxyPEPy [9]: not observed to displace

SMILES: O=C(N[C@@H](C1CC1)C(F)(F)F)c1ccc(OCc2cccc(F)c2)nc1 [8u]
metabolic stability in vitro ([10]; data not shown): relatively stable metabolically in vitro

SMILES: C[C@@H](NC(=O)c1ccc(OCc2cccc(F)c2)cc1)C(C)(C)C [8w]
EC50 relative to 8v ([1]; direct comparator to 8v): ~ 2.5 fold

SMILES: O=C(NC1CCCCC1)c1ccc(OCc2ccccc2)nc1 [8k]
estimated divergence of MPEP site interaction from functional activity ([2]; 21% displacement at 10 μM versus functional EC50): > 100 fold | oxidative metabolism in rat microsomal incubations ([10]; soft-spot analysis, rat microsomes): extensive oxidative metabolism

SMILES: CCC(C)COc1ccc(C(=O)NC2CCCCC2)cn1 (stereo not shown) [8g]
improvement in potency versus 8b [1]: twofold

SMILES: CCCCOc1ccc(C(=O)Nc2ccc(F)cc2F)cn1 [8a]
loss in functional activity versus 6 [1]: 22 fold

Second part, the molecule after the results:

EC50 (nM) [1]: complete loss of potentiation
SMILES: CCCOc1ccc(C(=O)NC2CCCCC2)cn1 [8e]

EC50 (nM) [1]: unproductive
SMILES: CCCC(C)Oc1ccc(C(=O)NC2CCCCC2)cn1 (stereo not shown) [8f]

loss in functional activity versus 6 [1]: > 15 fold
SMILES: CCCCOc1ccc(C(=O)NC2CCCCC2)cc1 [7a]

improvement in potency versus 8b [1]: fivefold
SMILES: CCCCCOc1ccc(C(=O)NC2CCCCC2)cn1 [8d]

loss in functional activity versus 6 [1]: > 15 fold
SMILES: CCCCOc1ccc(C(=O)NC2CCC2)cc1 [7c]
